Experimental data taken from patent US20070218134A1, “Compositions Comprising Organic Compounds” (priority 2003, published 2007).
Counter-ions that a name gives are not always drawn.

Key:
[1] = degradation kinetics of fluvastatin in aqueous solution at various pH; format: physicochemical
Source text: Certain HMG-CoA reductase inhibitors are extremely susceptible to degradation at pH below about 8. An example of such a compound comprises the compound having the USAN designation fluvastatin sodium (hereinafter “fluvastatin”), of the chemical designation: R*,S*-(E)(±)-7-[3-(4-fluorophenyl)-1-(1-methyl-ethyl)-1H-indol-2-yl]-3,5-dihydroxy-6-heptenoic acid, sodium salt, [see European Patent Application EP-A-114027].
For example, the degradation kinetics of fluvastatin in aqueous solution at various pH is illustrated below:
The above-indicated instability of fluvastatin and related HMG-CoA reductase compounds is believed to be due to the extreme lability of the β,δ-hydroxy groups on the heptenoic acid chain and the presence of the double bond, such that at neutral to acidic pH, the compounds readily undergo elimination or isomerization or oxidation reactions to form conjugated unsaturated aromatic compounds, as well as the threo isomer, the corresponding lactones, and other degradation products.

[2] = solubility of pitavastatin depending on pH; format: physicochemical; conditions: acidic pH conditions

SMILES	% fluvastatin remaining at 37° C. ([1]; pH 1.0, after 1 hour) [%]	% fluvastatin remaining at 37° C. ([1]; pH 1.0, after 24 hrs) [%]	% fluvastatin remaining at 37° C. ([1]; pH 4.0, after 1 hour) [%]	% fluvastatin remaining at 37° C. ([1]; pH 4.0, after 24 hrs) [%]	% fluvastatin remaining at 37° C. ([1]; pH 6.0, after 1 hour) [%]	% fluvastatin remaining at 37° C. ([1]; pH 6.0, after 24 hrs) [%]	% fluvastatin remaining at 37° C. ([1]; pH 7.8, after 1 hour) [%]	% fluvastatin remaining at 37° C. ([1]; pH 7.8, after 24 hrs) [%]	solubility of pitavastatin [2]
CC(C)n1c(/C=C/C(O)CC(O)CC(=O)O)c(-c2ccc(F)cc2)c2ccccc21 (stereo not drawn) [fluvastatin, R*,S*-(E)(±)-7-[3-(4-fluorophenyl)-1-(1-methyl-ethyl)-1H-indol-2-yl]-3,5-dihydroxy-6-heptenoic acid, sodium salt]	10.9	0	86.7	25.2	99.6	97.1	98.3	98.0	–
O=C(O)C[C@H](O)C[C@H](O)/C=C/c1c(C2CC2)nc2ccccc2c1-c1ccc(F)cc1 [pitavastatin]	–	–	–	–	–	–	–	–	higher
